From patent publication US20180311191A1, “NEW COMBINATION THERAPIES FOR TREATING NEUROLOGICAL DAMAGE” (UNIVERSITAT AUTONOMA DE BARCELONA, priority 2015, published 2018)
Like-named read-outs stand apart in the source and are kept apart here.

Tests used:
[1] = tested on: NSC-34 motoneuron-like cells; experiment: MTT cell survival assay of NSC-34 motoneuron-like cells under tunicamycin-induced ER stress; assay type: cell-based, mouse; conditions: for MTT assay (% sample vs control), Mean: concomitant TN 1 μg/mL, 24 h, C1 = 0.11 mM acamprosate calcium + 4 μM ribavirin, single drugs 0.11 mM acamprosate calcium, 4 μM ribavirin, 10 μM PRE084; for Corrected Response (Response less control 62.956%) / Response (% neuronal cell survival after ER stress): tunicamycin, MTT
Procedure: For the in vitro studies, we assessed cell survival of the NSC-34 motoneuron-like cells with a conventional MTT-based assay. NSC-34 is a hybrid cell line produced by fusion of neuroblastoma with mouse motoneuron-enriched primary spinal cord cells, which express properties characteristic of MNs, including the generation of action potentials, the presence of specific neurofilaments and acetylcholine signaling. […] Tunicamycin is a power that was dissolved in DMSO to 10 mg/ml final concentration and then diluted in Dulbeco's modified eagle medium (DMEM) medium at the final working solution indicated in figure legends. The rest of drugs, C1, Acamprosate calcium and Ribavirin were dissolved in water and then in DMEM medium at the final working solutions: 0.11 mM Acamprosate calcium (ACA), 4 μM Ribavirin (RIB) alone or in C1, at a final volume of 100 μI for MTT assays.
We assessed the neuroprotective effect of C1 (acamprosate calcium 0.11 mM+ribavirin 4 μM in 100 μl final volume) when added simultaneous to tunicamycin (TN) in the culture medium. We evaluated cell survival 24 h after the addition of toxin and therapeutic drugs performing an MTT conventional test.
In order to analyze the existence of possible additive neuroprotective effect between drugs, we determined the dose-effect relations of each individual drug (Acamprosate calcium 0.11 mM or Ribavirin 4 μM, both in 100 μI final volume) compared to equivalent doses for C1 (acamprosate calcium 0.11 mM+ribavirin 4 μM in 100 μI final volume).

motoneurons (MNs) [2] = experiment: Rat model of peripheral nerve root avulsion (RA model): MN counts and immunohistochemistry at L4-L5 spinal cord; assay type: in vivo; conditions: for effect on the neuroprotective effect (MN survival) exerted by C1: RA-injured animals treated with C1 concomitantly
From the text: For in vivo studies, a pre-clinical rat model of peripheral nerve root avulsion (RA model) was generated as previously described (see Penas C Cytoskeletal and activity-related changes in spinal motoneurons after root avulsion. Journal of Neurotrauma, 2009). Briefly, a midline skin incision was made at the level of the iliac crest, the right sciatic nerve was identified and the L4 and L5 spinal nerves were separated. A moderate traction was applied to produce extravertebral nerve root avulsion, leading to a retrograde degeneration of around 80% of the injured MNs within a month. The left roots were kept intact as control sham. We intratechally administered the vehicle (artificial cerebrospinal fluid (aCSF) [NaCl (124 mM), KCl (3 mM), NaHCO3 (26 mM), CaCl2/2H2O (2 mM), MgSO4/7H2O (1 mM), KH2PO4 (1.25 mM) and D-Glucose (10 mM)] or the positive control drug for neuroprotection (PRE084, 1-phenylcyclohexanecarboxylate hydrochloride, 1.7 μg/kg/day), C1 (Acamprosate calcium 96 μg/Kg/day (equivalent to 86.9 μg/Kg/day acamprosate free acid)+Ribavirin 0.48 μg/Kg/day) or acamprosate calcium (96 μg/Kg/day) (equivalent to 86.9 μg/Kg/day acamprosate free acid) alone and ribavirin (0.48 μg/Kg/day) alone. For this purpose, we used a programmable micro-infusion pump system (iPrecio, Primetech) to continuously perfuse the drugs into the animal CSF during 20 days from the following day after RA. […] experimental animal groups with RA were defined: one was treated with C1, another was treated with Pre084 (positive control), another was treated with Acamprosate calcium alone (A), another was treated with Ribavirin alone (B), another was treated with vehicle alone, another was left untreated (control). […] Images from microscope were digitally captured and analyzed using several plugins of the ImageJ Software.

motoneurons (MNs) [3] = conditions: cited from earlier work
[4] = acamprosate calcium alone, Dose DA 0.1X (1X = 0.11 mM)
[5] = acamprosate calcium alone, Dose DA 0.2X (1X = 0.11 mM)
[6] = acamprosate calcium alone, Dose DA 0.5X (1X = 0.11 mM)
[7] = acamprosate calcium alone, Dose DA 1X (0.11 mM)
[8] = ribavirin alone, Dose DB 0.1X (1X = 4 μM)
[9] = ribavirin alone, Dose DB 0.2X (1X = 4 μM)
[10] = ribavirin alone, Dose DB 0.5X (1X = 4 μM)
[11] = ribavirin alone, Dose DB 1X (4 μM)

With `CC(=O)NCCCS(=O)(=O)O` [acamprosate calcium, 3-acetamidopropane-1-sulfonic acid] the “MTT assay (% sample vs control), Mean” value ([1]; NSC-34 cells) was 65.80%, the “Corrected Response (Response less control 62.956%)” value [1, 4] was 3.52% and the “Response (% neuronal cell survival after ER stress)” value [1, 4] was 66.475%. For the same molecule, the “Corrected Response (Response less control 62.956%)” value [1, 5] was 2.96%, the “Response (% neuronal cell survival after ER stress)” value [1, 5] was 65.918% and the “Corrected Response (Response less control 62.956%)” value [1, 6] was 3.89%. For the same molecule, the “Response (% neuronal cell survival after ER stress)” value [1, 6] was 66.849%, the “Corrected Response (Response less control 62.956%)” value [1, 7] was 2.46% and the “Response (% neuronal cell survival after ER stress)” value [1, 7] was 65.417%.

For `NCCCCNCCCN` [spermidine], the “effect on the neuroprotective effect (MN survival) exerted by C1” value (motoneurons (MNs) [2]) was “did maintain it”.

In the case of `O=C(OCCN1CCOCC1)C1(c2ccccc2)CCCCC1` [PRE084, 2-(4-Morpholinethyl)1 Phenylcyclohexanecarboxylate], the “induction of MN survival” value (motoneurons (MNs) [3]; spinal root avulsion (Penas et al. 2011)) is listed as 50-60%, the “neuroprotection against TN stress compared with C1” value ([1]; NSC-34 cells, TN 1 μg/mL, 10 μM PRE084, MTT) is listed as “did not neuroprotect the cells as efficiently as C1” and the “MTT assay (% sample vs control), Mean” value ([1]; NSC-34 cells) is listed as 68.81%. For the same molecule, the “MN survival compared to the vehicle group” value (motoneurons (MNs) [2]; root avulsed rats, intrathecal infusion 20 days, 21 days post-injury, C1 = 96 μg/Kg/day acamprosate calcium + 0.48 μg/Kg/day ribavirin, PRE084 1.7 μg/kg/day) was “significantly different to the vehicle group”.

In the case of `Nc1nc2ccc(OC(F)(F)F)cc2s1` [riluzole], the neuroprotective effect (motoneurons (MNs) [3]; model of spinal root avulsion with reimplantation) is listed as “maximum observed effect of neuroprotection” and the neuroprotective effect (motoneurons (MNs) [3]; models of root avulsion without reimplantation (Chew 2014)) is listed as “no neuroprotective effect”.

For `NC(=O)c1ncn([C@@H]2O[C@H](CO)[C@@H](O)[C@H]2O)n1` [ribavirin, 1-[(2R,3R,4S,5R)-3,4-dihydroxy-5-(hydroxymethyl)oxolan-2-yl]-1H-1,2,4-triazole-3-carboxamide], the “MTT assay (% sample vs control), Mean” value ([1]; NSC-34 cells) was 68.07%, the “Corrected Response (Response less control 62.956%)” value [1, 8] was 5.71% and the “Response (% neuronal cell survival after ER stress)” value [1, 8] was 68.662%. The “Corrected Response (Response less control 62.956%)” value [1, 9] was 7.93%, the “Response (% neuronal cell survival after ER stress)” value [1, 9] was 70.886% and the “Corrected Response (Response less control 62.956%)” value [1, 10] was 2.72%. The “Response (% neuronal cell survival after ER stress)” value [1, 10] was 65.676%, the “Corrected Response (Response less control 62.956%)” value [1, 11] was 5.69% and the “Response (% neuronal cell survival after ER stress)” value [1, 11] was 68.647%.

With `NC(=O)C1CCCc2c1[nH]c1ccc(Cl)cc21` (centres unmarked) [EX-527, 6-chloro-2,3,4,9-tetrahydro-1H-carbazole-1-carboxamide] the “effect on the neuroprotective effect (MN survival) exerted by C1” value (motoneurons (MNs) [2]) was “abolished the neuroprotective effect”.
